Results reported in patent US12606528B2, “Methods and materials for inhibiting NF-kB activity” (University of Pittsburgh - Of the Commonwealth System of …, priority 2019, dated 2026).
Read-outs that look alike come from different tables or passages of the source.

How the values were obtained:
[1] = system: NF-κB; experiment: NF-κB assay: THP1-NF-κB-LUC cells, LPS-stimulated secreted luciferase; format: cell-based; details: THP1-NF-κB-LUC cells, read-out: IC50 (NF-κB assay)
In short: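 THP1-NF-κB-LUC cells (25k/well) were pretreated with compounds for 2 h, then stimulated with LPS (10 ng/mL) for 18 h. Secreted luciferase was measured and normalized to vehicle, and IC50 was fitted from the concentration series.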

[2] = system: TNF release; experiment: TNF assay: TNF release from LPS-stimulated human PBMCs (TNF ELISA); format: cell-based; details: PBMC, read-out: IC50 (TNF assay)
In short: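 Human PBMCs at 10k/well pretreated with compound dilutions 2 h, then stimulated with LPS (10 ng/mL) for 18 h. TNF in supernatants quantified by ELISA; IC50 for inhibition of TNF release fitted from concentration–response.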

[3] = compounds 2 hours before LPS (10 ng/mL) for 18 hours, secreted luciferase
[4] = human PBMCs, compounds 2 hours before LPS (10 ng/ml) for 18 hours, supernatant TNF ELISA
[5] = LPS-stimulated human PBMCs, TNF ELISA

SMILES | IC50 [1, 3] [µM] | IC50 [2, 4] [µM] | IC50 ([1]; LPS-stimulated) [µM] | IC50 [2, 5] [µM]
CC1Oc2c(cc(Br)cc2S(=O)(=O)NC2CCC(O)CC2)NC1=O (stereo not drawn) [BC19366] | > 10 | > 10 | – | –
CC1Oc2c(cc(Br)cc2S(=O)(=O)NC2CCC(C(C)(C)C)CC2)NC1=O (stereo not drawn) [BC19367] | > 10 | > 10 | – | –
CCC1Oc2cc(S(=O)(=O)NCc3ccc(F)cc3F)c(Br)cc2NC1=O (stereo not drawn) [BC19368] | > 10 | > 10 | – | –
CCC1Oc2cc(S(=O)(=O)NCc3ccc(OC(F)(F)F)cc3)c(Br)cc2NC1=O (stereo not drawn) [BC19369] | > 10 | > 10 | – | –
CCC1Oc2cc(S(=O)(=O)NCCc3ccc(OC(F)(F)F)cc3)c(Br)cc2NC1=O (stereo not drawn) [BC19373] | > 10 | > 10 | – | –
CCC1Oc2c(cc(Br)cc2S(=O)(=O)NCc2ccc(F)cc2F)NC1=O (stereo not drawn) [BC19374] | < 0.1 | 1 to 10 | – | –
CCC1Oc2c(cc(Br)cc2S(=O)(=O)NCc2ccc(OC(F)(F)F)cc2)NC1=O (stereo not drawn) [BC19375] | < 0.1 | > 10 | – | –
CCC1Oc2c(cc(Br)cc2S(=O)(=O)NCCc2ccc(OC(F)(F)F)cc2)NC1=O (stereo not drawn) [BC19376] | 1 to 10 | > 10 | – | –
O=C1COc2c(cc(Br)cc2S(=O)(=O)NC2CCC(O)CC2)N1 (stereo not drawn) [BC19381] | > 10 | > 10 | – | –
O=C1COc2c(cc(Br)cc2S(=O)(=O)Nc2ccc(C(F)(F)F)cc2Cl)N1 [BC19384] | < 0.1 | > 10 | – | –
O=C1COc2c(cc(Br)cc2S(=O)(=O)NCc2ccc(F)cc2F)N1 [BC19386] | > 10 | > 10 | – | –
CC(C)(C)C1CCC(NS(=O)(=O)c2cc3c(cc2Br)NC(=O)CO3)CC1 (stereo not drawn) [BC19388] | > 10 | > 10 | – | –
O=C1COc2cc(S(=O)(=O)NC3CCC(O)CC3)c(Br)cc2N1 (stereo not drawn) [BC19389] | > 10 | > 10 | – | –
OCCn1cc(-c2ccc3nc(-c4ccc(F)cc4)c(-c4ccc(F)cc4)nc3c2)nn1 [BC19396] | – | – | < 0.1 | > 10
CN1CCN(C(=O)c2ccc3nc(-c4ccc(F)cc4)c(-c4ccc(OC(F)(F)F)cc4)nc3c2)CC1 [BC19399] | – | – | > 10 | > 10
Cn1cc(-c2cnc3nc(-c4ccc(F)cc4)c(-c4ccc(F)cc4)nc3c2)nn1 [BC19401] | – | – | < 0.1 | > 10
Fc1ccc(-c2nc3cccnc3nc2-c2ccc(F)cc2)cc1 [BC19403] | – | – | 0.1 to 1 | > 10
OCCn1ncc(-c2ccc3nc(-c4ccc(F)cc4)c(-c4ccc(F)cc4)nc3c2)n1 [BC19404] | – | – | 1 to 10 | > 10
C#CCNC(=O)c1ccc2nc(-c3ccc(F)cc3F)c(-c3ccccc3)nc2c1 [BC19406] | – | – | 0.1 to 1 | > 10
CN1CCN(C(=O)c2cnc3nc(-c4ccc(F)cc4)c(-c4ccc(F)cc4)nc3c2)CC1 [BC19408] | – | – | 0.1 to 1 | > 10
COc1cccc(-c2nc(S(=O)(=O)c3ccc(Cl)cc3)c(S(C)(=O)=O)[nH]2)c1 [BC19410] | – | – | 0.1 to 1 | > 10
CC(C)S(=O)(=O)c1oc(-c2cccc(F)c2)nc1S(=O)(=O)c1ccc(Cl)cc1 [BC19411] | – | – | < 0.1 | < 0.1
CCC[S+]([O-])c1sc(-c2ccc(F)cc2)nc1S(=O)(=O)c1ccc(Cl)cc1 (stereo not drawn) [BC19414] | – | – | > 10 | > 10
CC(C)[S+]([O-])c1sc(-c2ccc(F)cc2)nc1S(=O)(=O)c1ccc(Cl)cc1 (stereo not drawn) [BC19415] | – | – | > 10 | 1 to 10
O=S(=O)(c1ccc(Cl)cc1)c1nc(-c2ccc(F)cc2)sc1[S+]([O-])CC1CC1 (stereo not drawn) [BC19416] | – | – | > 10 | > 10
CCC[S+]([O-])c1oc(-c2ccc(Cl)cc2)nc1S(=O)(=O)c1ccc(Cl)cc1 (stereo not drawn) [BC19417] | – | – | 0.1 to 1 | 1 to 10
CC(C)CS(=O)(=O)c1oc(-c2ccc(Cl)cc2)nc1S(=O)(=O)c1ccc(Cl)cc1 [BC19419] | – | – | 1 to 10 | 0.1 to 1
COCC[S+]([O-])c1[nH]c(-c2ccccc2)nc1S(=O)(=O)c1ccc(Cl)cc1 (stereo not drawn) [BC19420] | – | – | > 10 | > 10
CCS(=O)(=O)c1cc2c(c(S(=O)(=O)Nc3ccc(F)c(F)c3)c1)OCC(=O)N2 [BC19421] | < 0.1 | > 10 | – | –
Cc1ccc(NS(=O)(=O)c2cc(S(C)(=O)=O)cc3c2OCC(=O)N3)cc1F [BC19423] | < 0.1 | > 10 | – | –

The next lines start with the values.

IC50 [1, 3] [µM] | IC50 [2, 4] [µM] | IC50 ([1]; LPS-stimulated) [µM] | IC50 [2, 5] [µM] | SMILES
0.1 to 1 | > 10 | – | – | CC1Oc2c(cc(Br)cc2S(=O)(=O)NCc2ccc(F)cc2F)NC1=O (stereo not drawn) [BC19362]
< 0.1 | > 10 | – | – | CC1Oc2c(cc(Br)cc2S(=O)(=O)NCc2ccc(OC(F)(F)F)cc2)NC1=O (stereo not drawn) [BC19363]
> 10 | > 10 | – | – | CC1Oc2c(cc(Br)cc2S(=O)(=O)NCCc2ccc(OC(F)(F)F)cc2)NC1=O (stereo not drawn) [BC19364]
1 to 10 | > 10 | – | – | CC1Oc2c(cc(Br)cc2S(=O)(=O)NCc2ccc(C(F)(F)F)cc2)NC1=O (stereo not drawn) [BC19365]
> 10 | > 10 | – | – | CCC1Oc2cc(S(=O)(=O)NCc3ccc(C(F)(F)F)cc3)c(Br)cc2NC1=O (stereo not drawn) [BC19370]
1 to 10 | > 10 | – | – | CCC1Oc2cc(S(=O)(=O)Nc3ccc(C(F)(F)F)cc3Cl)c(Br)cc2NC1=O (stereo not drawn) [BC19371]
> 10 | > 10 | – | – | CCC1Oc2cc(S(=O)(=O)NC3CCC(O)CC3)c(Br)cc2NC1=O (stereo not drawn) [BC19372]
< 0.1 | > 10 | – | – | CCC1Oc2c(cc(Br)cc2S(=O)(=O)NCc2ccc(C(F)(F)F)cc2)NC1=O (stereo not drawn) [BC19377]
> 10 | > 10 | – | – | CCC1Oc2c(cc(Br)cc2S(=O)(=O)NC2CCC(O)CC2)NC1=O (stereo not drawn) [BC19378]
> 10 | > 10 | – | – | CCC1Oc2c(cc(Br)cc2S(=O)(=O)NC2CCC(C(C)(C)C)CC2)NC1=O (stereo not drawn) [BC19379]
> 10 | > 10 | – | – | CC(C)(C)C1CCC(NS(=O)(=O)c2cc(Br)cc3c2OCC(=O)N3)CC1 (stereo not drawn) [BC19380]
> 10 | > 10 | – | – | O=C1COc2c(cc(Br)cc2S(=O)(=O)NCc2ccc(C(F)(F)F)cc2)N1 [BC19382]
> 10 | > 10 | – | – | O=C1COc2c(cc(Br)cc2S(=O)(=O)NCCc2ccc(OC(F)(F)F)cc2)N1 [BC19383]
> 10 | > 10 | – | – | O=C1COc2c(cc(Br)cc2S(=O)(=O)NCc2ccc(OC(F)(F)F)cc2)N1 [BC19385]
> 10 | > 10 | – | – | O=C1COc2cc(S(=O)(=O)NCCc3ccc(OC(F)(F)F)cc3)c(Br)cc2N1 [BC19387]
1 to 10 | > 10 | – | – | O=C1COc2cc(S(=O)(=O)Nc3ccc(C(F)(F)F)cc3Cl)c(Br)cc2N1 [BC19390]
> 10 | > 10 | – | – | O=C1COc2cc(S(=O)(=O)NCc3ccc(C(F)(F)F)cc3)c(Br)cc2N1 [BC19391]
> 10 | > 10 | – | – | O=C1COc2cc(S(=O)(=O)NCc3ccc(OC(F)(F)F)cc3)c(Br)cc2N1 [BC19392]

IC50 [1, 3] [µM] | IC50 [2, 4] [µM] | IC50 ([1]; LPS-stimulated) [µM] | IC50 [2, 5] [µM] | SMILES
> 10 | > 10 | – | – | O=C1COc2cc(S(=O)(=O)NCc3ccc(F)cc3F)c(Br)cc2N1 [BC19393]
< 0.1 | > 10 | – | – | CC1Oc2c(cc(Cl)cc2S(=O)(=O)Nc2ccc(OC(F)(F)F)cc2)NC1=O (stereo not drawn) [BC19394]
– | – | 0.1 to 1 | < 0.1 | CN1CCN(C(=O)c2ccc3nc(-c4ccc(F)cc4)c(S(=O)(=O)c4cccc(F)c4)nc3c2)CC1 [BC19395]
– | – | < 0.1 | 0.1 to 1 | C#CC(=O)Nc1ccc2nc(-c3ccc(F)cc3)c(-c3ccc(F)cc3)nc2c1 [BC19397]
– | – | 0.1 to 1 | > 10 | CN1CCN(C(=O)c2ccc3nc(-c4ccc(F)cc4)c(-c4ccc(Cl)cc4Cl)nc3c2)CC1 [BC19398]
– | – | > 10 | > 10 | CN1CCN(C(=O)c2cccc3nc(-c4ccc(F)cc4)c(-c4ccc(F)cc4)nc23)CC1 [BC19400]
– | – | < 0.1 | > 10 | CCCn1cc(-c2cnc3nc(-c4ccc(F)cc4)c(-c4ccc(F)cc4)nc3c2)nn1 [BC19402]
– | – | 0.1 to 1 | > 10 | CN1CCN(C(=O)c2ccc3nc(-c4ccc(F)cc4F)c(-c4ccccc4)nc3c2)CC1 [BC19405]
– | – | 0.1 to 1 | > 10 | O=C(O)c1cnc2nc(-c3ccc(F)cc3)c(-c3ccc(F)cc3)nc2c1 [BC19407]
> 10 | > 10 | – | – | O=c1c(S(=O)(=O)c2cccc(F)c2)c(O)[nH]c2ncccc12 [BC19409]
– | – | 0.1 to 1 | 0.1 to 1 | O=S(=O)(c1ccc(Cl)cc1)c1nc(-c2cccc(F)c2)oc1S(=O)(=O)C1CCCCC1 [BC19412]
– | – | > 10 | 1 to 10 | C[S+]([O-])c1sc(-c2ccc(F)cc2)nc1S(=O)(=O)c1ccc(Cl)cc1 (stereo not drawn) [BC19413]
– | – | 1 to 10 | 1 to 10 | CCCS(=O)(=O)c1oc(-c2ccc(Cl)cc2)nc1S(=O)(=O)c1ccc(Cl)cc1 [BC19418]
< 0.1 | > 10 | – | – | CS(=O)(=O)c1cc2c(c(S(=O)(=O)Nc3ccc(OC(F)(F)F)cc3)c1)OCC(=O)N2 [BC19422]
< 0.1 | > 10 | – | – | CC(C)c1ccc(NS(=O)(=O)c2cc(S(C)(=O)=O)cc3c2OCC(=O)N3)cc1 [BC19424]
< 0.1 | > 10 | – | – | CS(=O)(=O)c1cc2c(c(S(=O)(=O)Nc3ccc(F)cc3F)c1)OCC(=O)N2 [BC19425]
< 0.1 | > 10 | – | – | CS(=O)(=O)c1cc2c(c(S(=O)(=O)Nc3cccc(F)c3)c1)OCC(=O)N2 [BC19426]
< 0.1 | > 10 | – | – | CS(=O)(=O)c1cc2c(c(S(=O)(=O)Nc3cccc(Cl)c3)c1)OCC(=O)N2 [BC19427]
